Reference: patent US12403132B2, “Methods of treating bone marrow failure syndromes and compositions for use in the same” (The Board of Trustees of the Leland Stanford Junior …, priority 2020, dated 2025)

Tests used:
CD235+ erythroblasts = experiment: CD235+ erythroblast differentiation of CD34+ HSPCs from DBA patient bone marrow; assay type: cell-based, human; conditions: DBA patient samples, 5 μM SD208
Protocol: FIG. 8. NLK inhibition increases expansion of erythroid progenitors from human and murine models of DBA. Human cord blood CD34+ progenitors were transduced with lentivirus co-expressing GFP with shRNA against luciferase (shLuc), RPS19 (shRPS19) or RPL11 (shRPL11). After 36 hours cells GFP+ cells were differentiated in erythroid media in the presence or absence of 5 μM SD208 for 15 days. Cells were counted and assessed for cell surface expression of CD235. (a) The percentage of CD235+ cells was multiplied by the cell count and values were compared as a percentage of untreated controls. (b) Normalizing values relative to untreated RPS19-insufficiency progenitors facilitates direct comparison of erythropoiesis between untreated and SD208-treated cultures. (c) Approximately 3000 cells were removed from differentiating treatments at day 6 and NLK activity was assessed. […] Values were expressed as a percentage relative to untreated controls (e) and directly comparing the effect of SD208 on erythropoiesis in ribosomal-insufficiency by expressing values relative to untreated ribosome-insufficient cultures (f). […] After counting the total cell population, the ratio of CD235+ erythroblasts was determined by flow cytometry and number of CD235+ erythroblasts calculated. This was expressed as a percentage of the average number of erythroid cells present in untreated healthy controls. […]

human NLK 3′UTR = experiment: Luciferase fused to human NLK 3′UTR in K562 cells; assay type: cell-based
Protocol: FIG. 12. NLK 3′UTR facilitates metformin-mediated NLK suppression. (Panel A) K562 cells stabling expressing luciferase alone (top portion), luciferase expressed behind a minimal promoter and the NLK proximal promoter (2nd portion), luciferase immediately upstream of the human NLK 3′UTR (3rd portion) or luciferase with the SATB1 3′UTR (bottom portion) were grown in the presence of 0, 0.5, 5.0 or 50.0 mM of metformin for 72 hrs. Cell were pelleted and either processed for luciferase assay (left portion) or western blot analysis of endogenous NLK (upper right portion) or GAPDH (lower right portion). (Panel B) Luciferase immediately upstream of the human (upper), murine (middle) and zebrafish (lower) NLK 3′UTR were transiently transfected into human K562 (left) and cultured with indicated concentrations of metformin for 72 hrs. Lysates were assessed for luciferase activity and endogenous NLK and GAPDH protein expression by Western blotting. […] Statistics: two-tailed Student's t test, significant *P<0.05
FIG. 14. Metformin-mediated upregulation of miR-26a in human progenitors suppresses NLK expression. (Panel A) Human CD34+ (upper) and murine Lin-Kit+ (lower) progenitors were differentiated for 8 days in the presence or absence of metformin and the levels of indicated miRNAs were assessed by qRT-PCR. […] After lysis, luciferase activity was determined and endogenous NLK and GAPDH protein expression was analyzed by Western blot. […]
The NLK minimal promoter (1019 5′ nucleotides) and or NLK 3′UTR (1885 3′ nucleotides) were cloned upstream, or downstream respectively, of firefly luciferase and transfected into K562 cells. Transfection efficiency was normalized by RFP expression and firefly luciferase activity determined by Luciferase Assay Reagent II (LAR II) from Dual-Luciferase® Reporter (DLR™) Assay System (Promega). Luminescence was assessed using a Synergy™ H1 hybrid multi-mode microplate reader (BioTek®). […]

[1] = test system: zebrafish (Danio rerio) embryos; experiment: Zebrafish rps19 morpholino model, o-dianisidine hemoglobin staining; assay type: in vivo
From the text: FIG. 11. […] Statistics: two-tailed Student's t test, significant *P<0.05

| SMILES | mean increase in erythroid expansion (CD235+ erythroblasts) | reduction of luciferase activity (wild-type human NLK 3′UTR) (human NLK 3′UTR; K562, miRNA mimetics or metformin, 72 hrs) | decrease of luciferase (NLK 3′UTR fusion) (human NLK 3′UTR; stable K562, 50 mM metformin, 72 hrs) | decrease of luciferase activity, human 3′UTR (human NLK 3′UTR; transient transfection in K562, metformin 72 hrs) | heart conditions ([1]; 20 mM metformin) | O'dianisidine (hemoglobin) staining ([1]; 20 mM metformin from 4 to 5 hpf, day 3) |
| --- | --- | --- | --- | --- | --- | --- |
| Fc1ccc(Cl)cc1-c1nc(Nc2ccncc2)c2nccnc2n1 [SD208] | 2.11 fold |  |  |  |  |  |
| CN(C)C(=N)N=C(N)N [metformin] |  | 72.5% | 67.5% | 65.4% | persisted | dramatically restored |
